The test system of one assay is ASPC1. Nature of the assay: Cytotoxicity against human AsPC1 cells assessed as cell viability 10 uM after 72 hrs by cell counting analysis relative to control. It is filed as functional.
In another assay the test system is U-118-MG. The assay is described as follows: Antiproliferative activity against human U118MG cells assessed as inhibition of cell growth at 100 uM after 72 hrs by WST1 assay. The class given is functional, cell-based.
Assay [1] addresses T1, 3-phosphoinositide-dependent protein kinase 1 (Homo sapiens, UniProt O15530).
T1 sequence (O15530 whole entry): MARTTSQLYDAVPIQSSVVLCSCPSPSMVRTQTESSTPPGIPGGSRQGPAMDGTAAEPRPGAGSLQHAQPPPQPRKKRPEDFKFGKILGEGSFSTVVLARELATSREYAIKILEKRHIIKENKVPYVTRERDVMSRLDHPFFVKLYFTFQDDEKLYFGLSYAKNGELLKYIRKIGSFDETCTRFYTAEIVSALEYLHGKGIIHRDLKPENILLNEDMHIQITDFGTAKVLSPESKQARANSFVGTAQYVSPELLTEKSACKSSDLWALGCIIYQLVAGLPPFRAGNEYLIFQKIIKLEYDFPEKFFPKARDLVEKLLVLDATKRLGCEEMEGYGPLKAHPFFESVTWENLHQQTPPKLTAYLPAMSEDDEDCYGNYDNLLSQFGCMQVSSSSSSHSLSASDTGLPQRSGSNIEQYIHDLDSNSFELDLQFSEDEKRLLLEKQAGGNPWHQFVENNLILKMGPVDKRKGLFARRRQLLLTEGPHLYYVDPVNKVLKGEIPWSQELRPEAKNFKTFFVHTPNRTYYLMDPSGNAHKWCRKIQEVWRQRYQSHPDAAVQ
The assay is described as follows: Inhibition of PDK1 (unknown origin) incubated for 1 hr by Z'Lyte assay.

Assay [2] concerns the target RAC-alpha serine/threonine-protein kinase (Homo sapiens) (UniProt P31749). The assay is described as follows: Inhibition of recombinant Akt1 (unknown origin) incubated for 1 hr by Z'Lyte assay.

Calls of active or inactive are those of the source. The calls are words filed in the database; no cut-off is given here.

Sequence of RAC-alpha serine/threonine-protein kinase (Homo sapiens) (P31749 whole entry): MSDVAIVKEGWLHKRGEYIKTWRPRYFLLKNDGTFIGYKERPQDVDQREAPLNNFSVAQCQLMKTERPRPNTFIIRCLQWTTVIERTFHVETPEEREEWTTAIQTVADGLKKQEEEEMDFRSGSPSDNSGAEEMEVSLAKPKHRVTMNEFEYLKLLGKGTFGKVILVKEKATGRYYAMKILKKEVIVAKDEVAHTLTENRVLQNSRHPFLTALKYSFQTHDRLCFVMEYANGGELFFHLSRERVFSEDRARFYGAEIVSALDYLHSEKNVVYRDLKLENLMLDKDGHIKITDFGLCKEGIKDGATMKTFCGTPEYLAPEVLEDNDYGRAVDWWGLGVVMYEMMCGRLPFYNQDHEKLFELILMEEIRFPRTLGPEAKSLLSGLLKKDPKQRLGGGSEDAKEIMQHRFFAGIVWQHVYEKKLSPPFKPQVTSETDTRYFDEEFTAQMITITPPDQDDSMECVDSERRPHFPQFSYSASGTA

Take `CSc1ccc(NC(=O)Nc2ccc3c(c2)/C(=C\c2nccn2C)C(=O)N3)cc1`: the Activity in the assay with ASPC1 came out at 95.13%. As for `Cn1nnc2c(C(N)=O)ncn2c1=O`, in the assay on U-118-MG, the “growth inhibition (GI)” value was “inactive”.

For `CSc1ccc(NC(=O)Nc2ccc3c(c2)/C(=C/c2cccs2)C(=O)N3)cc1`, the Activity with ASPC1 amounted to 77.29%. Still for that read-out and setting: in the case of `Cn1ccnc1/C=C1/C(=O)Nc2ccc(NS(C)(=O)=O)cc21` it was 96.23%; in that of `COc1ccc(CNCC(=O)Nc2ccc3c(c2)/C(=C/c2cccs2)C(=O)N3)cc1OC`, 86.75%. Take `COc1cc2c(cc1OC)CN(CC(=O)Nc1ccc3c(c1)/C(=C\c1nccn1C)C(=O)N3)CC2`: the Activity in the assay on ASPC1 came out at 82.34%.

`CS(=O)(=O)c1ccc(NC(=O)Nc2ccc3c(c2)/C(=C/c2cccs2)C(=O)N3)cc1`: the Activity with ASPC1 is reported as 93.88%.

For `CSc1ccc(NC(=O)Nc2ccc3c(c2)/C(=C/c2cnc[nH]2)C(=O)N3)cc1`, the Activity in the assay with ASPC1 turned out to be 82.94%.

As to `COc1cc2c(cc1OC)CN(CC(=O)Nc1ccc3c(c1)/C(=C/c1cccs1)C(=O)N3)CC2`, in the assay on ASPC1, the Activity came out at 82.04%. For `CS(=O)(=O)Nc1ccc2c(c1)/C(=C/c1cccs1)C(=O)N2`, in the assay on ASPC1, the Activity amounted to 68.06%. In assay [1], the IC50 was determined as 6.81 µM. Moreover, the inhibition result in assay [2] was “inactive”. Regarding `COc1ccc(CNS(=O)(=O)c2ccc3c(c2)/C(=C/c2cccs2)C(=O)N3)cc1OC`, the Activity in the assay with ASPC1 turned out to be 84.18%. Still for that read-out and setting: in the case of `CS(=O)(=O)c1ccc(NC(=O)Nc2ccc3c(c2)/C(=C/c2cnc[nH]2)C(=O)N3)cc1` it was 82.21%. Turning to `CS(=O)(=O)Nc1ccc2c(c1)/C(=C/c1cnc[nH]1)C(=O)N2`, the Activity in the assay with ASPC1 stood at 73.83%. The IC50 in assay [1] is 0.31 µM. Also, the inhibition result in assay [2] was “inactive”. Take `Cn1ccnc1/C=C1/C(=O)Nc2ccc(NC(=O)Nc3ccc(S(C)(=O)=O)cc3)cc21`: in the assay on ASPC1, the Activity is 90.57%. For `COc1ccc(CNS(=O)(=O)c2ccc3c(c2)/C(=C\c2nccn2C)C(=O)N3)cc1OC`, the Activity with ASPC1 was determined as 84.5%.

For orientation: IC50 means the concentration that gives 50% inhibition.

(Values after ChEMBL document CHEMBL3734692, “Design and synthesis of 2-oxindole based multi-targeted inhibitors of PDK1/Akt signaling pathway for the treatment of glioblastoma multiforme” (Eur J Med Chem, 2015).)
